Experimental data from ChEMBL document CHEMBL1201862, “PubChem BioAssay data set” (2004).
Activity calls are given as the source filed them.

Key:
[1] = biological target: T1, Sentrin-specific protease 8 (Homo sapiens, UniProt Q96LD8); assay type: functional
T1 sequence (Q96LD8 whole entry): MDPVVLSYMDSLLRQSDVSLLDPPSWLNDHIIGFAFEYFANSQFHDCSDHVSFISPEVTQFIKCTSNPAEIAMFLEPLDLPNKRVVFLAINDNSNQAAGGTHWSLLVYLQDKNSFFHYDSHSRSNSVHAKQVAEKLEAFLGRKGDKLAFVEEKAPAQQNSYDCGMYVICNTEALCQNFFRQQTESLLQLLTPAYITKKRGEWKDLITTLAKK

[2] = biological target: T1, Sentrin-specific protease 8; assay type: functional; remark: listed apart in the source
[3] = biological target: Tyrosyl-DNA phosphodiesterase 2 (Homo sapiens, UniProt O95551); assay: human TDP2 enzyme inhibitors, dose response, biochemical, epi absorbance, IC50 (AID 743297)
Sequence of Tyrosyl-DNA phosphodiesterase 2 (O95551 whole entry): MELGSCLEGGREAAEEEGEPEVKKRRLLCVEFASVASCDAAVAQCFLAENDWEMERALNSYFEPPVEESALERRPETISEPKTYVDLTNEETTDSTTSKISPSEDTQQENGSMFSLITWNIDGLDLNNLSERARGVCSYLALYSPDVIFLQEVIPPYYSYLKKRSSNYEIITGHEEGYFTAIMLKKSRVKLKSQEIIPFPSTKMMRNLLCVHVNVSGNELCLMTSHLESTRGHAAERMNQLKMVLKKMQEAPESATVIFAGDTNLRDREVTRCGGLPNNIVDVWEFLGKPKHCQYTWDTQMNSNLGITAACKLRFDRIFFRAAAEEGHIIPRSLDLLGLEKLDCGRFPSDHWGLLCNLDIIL

[4] = cytotoxicity in HEK-293T cells, dose response, cytotoxicity control for BCR NF-kB inhibitor project, luminescence, B-cell screen hits (AID 489021); assay type: functional, cell-based;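 also: HEK-293T cells carrying an NF-kB luciferase reporter; cells exposed to compound for about 14 hours before viability readout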
[5] = biological target: T2, Histone-lysine N-methyltransferase NSD2 (Homo sapiens, UniProt O96028); assay type: biochemical
T2 sequence (O96028 whole entry): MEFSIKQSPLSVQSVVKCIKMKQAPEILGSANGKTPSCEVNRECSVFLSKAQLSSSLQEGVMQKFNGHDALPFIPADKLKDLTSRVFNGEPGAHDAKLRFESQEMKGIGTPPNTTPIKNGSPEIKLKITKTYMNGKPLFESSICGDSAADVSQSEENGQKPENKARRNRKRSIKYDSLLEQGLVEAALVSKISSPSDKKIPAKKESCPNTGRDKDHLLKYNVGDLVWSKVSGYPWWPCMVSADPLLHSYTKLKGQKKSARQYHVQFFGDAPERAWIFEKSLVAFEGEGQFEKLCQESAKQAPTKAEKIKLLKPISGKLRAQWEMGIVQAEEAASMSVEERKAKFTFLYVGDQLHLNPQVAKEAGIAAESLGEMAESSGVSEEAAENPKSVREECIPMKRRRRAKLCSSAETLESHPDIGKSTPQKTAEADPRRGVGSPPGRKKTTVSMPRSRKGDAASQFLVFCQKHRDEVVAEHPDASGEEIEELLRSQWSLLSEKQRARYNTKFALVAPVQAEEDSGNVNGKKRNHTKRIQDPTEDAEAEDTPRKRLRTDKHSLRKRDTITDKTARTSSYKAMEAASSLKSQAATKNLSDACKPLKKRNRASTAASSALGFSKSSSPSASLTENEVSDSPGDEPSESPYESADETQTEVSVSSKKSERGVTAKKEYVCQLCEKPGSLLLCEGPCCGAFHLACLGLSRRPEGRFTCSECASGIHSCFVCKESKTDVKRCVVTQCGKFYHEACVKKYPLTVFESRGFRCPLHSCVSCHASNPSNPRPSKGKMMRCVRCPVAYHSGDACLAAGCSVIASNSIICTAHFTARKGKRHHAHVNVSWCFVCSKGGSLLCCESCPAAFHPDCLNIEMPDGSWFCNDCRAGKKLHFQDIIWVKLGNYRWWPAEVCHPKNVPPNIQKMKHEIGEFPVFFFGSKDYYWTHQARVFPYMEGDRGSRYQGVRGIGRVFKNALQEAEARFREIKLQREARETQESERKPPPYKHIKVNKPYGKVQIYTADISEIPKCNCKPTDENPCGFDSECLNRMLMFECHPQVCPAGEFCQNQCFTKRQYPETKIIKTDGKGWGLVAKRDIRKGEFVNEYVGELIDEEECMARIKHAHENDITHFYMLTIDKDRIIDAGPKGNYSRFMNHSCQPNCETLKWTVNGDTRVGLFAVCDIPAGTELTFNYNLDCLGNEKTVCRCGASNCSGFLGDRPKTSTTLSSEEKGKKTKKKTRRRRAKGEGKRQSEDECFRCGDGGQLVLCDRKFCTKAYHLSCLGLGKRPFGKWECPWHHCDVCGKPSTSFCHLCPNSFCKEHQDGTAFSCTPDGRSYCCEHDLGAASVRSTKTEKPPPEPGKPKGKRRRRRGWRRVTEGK

[6] = biological target: T3, Sentrin-specific protease 6 (Homo sapiens, UniProt Q9GZR1); assay type: functional;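 also: Luminescence-based dose-response confirmatory assay of SENP6 inhibition, following up an ultra-high-throughput screen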
T3 sequence (Q9GZR1 whole entry): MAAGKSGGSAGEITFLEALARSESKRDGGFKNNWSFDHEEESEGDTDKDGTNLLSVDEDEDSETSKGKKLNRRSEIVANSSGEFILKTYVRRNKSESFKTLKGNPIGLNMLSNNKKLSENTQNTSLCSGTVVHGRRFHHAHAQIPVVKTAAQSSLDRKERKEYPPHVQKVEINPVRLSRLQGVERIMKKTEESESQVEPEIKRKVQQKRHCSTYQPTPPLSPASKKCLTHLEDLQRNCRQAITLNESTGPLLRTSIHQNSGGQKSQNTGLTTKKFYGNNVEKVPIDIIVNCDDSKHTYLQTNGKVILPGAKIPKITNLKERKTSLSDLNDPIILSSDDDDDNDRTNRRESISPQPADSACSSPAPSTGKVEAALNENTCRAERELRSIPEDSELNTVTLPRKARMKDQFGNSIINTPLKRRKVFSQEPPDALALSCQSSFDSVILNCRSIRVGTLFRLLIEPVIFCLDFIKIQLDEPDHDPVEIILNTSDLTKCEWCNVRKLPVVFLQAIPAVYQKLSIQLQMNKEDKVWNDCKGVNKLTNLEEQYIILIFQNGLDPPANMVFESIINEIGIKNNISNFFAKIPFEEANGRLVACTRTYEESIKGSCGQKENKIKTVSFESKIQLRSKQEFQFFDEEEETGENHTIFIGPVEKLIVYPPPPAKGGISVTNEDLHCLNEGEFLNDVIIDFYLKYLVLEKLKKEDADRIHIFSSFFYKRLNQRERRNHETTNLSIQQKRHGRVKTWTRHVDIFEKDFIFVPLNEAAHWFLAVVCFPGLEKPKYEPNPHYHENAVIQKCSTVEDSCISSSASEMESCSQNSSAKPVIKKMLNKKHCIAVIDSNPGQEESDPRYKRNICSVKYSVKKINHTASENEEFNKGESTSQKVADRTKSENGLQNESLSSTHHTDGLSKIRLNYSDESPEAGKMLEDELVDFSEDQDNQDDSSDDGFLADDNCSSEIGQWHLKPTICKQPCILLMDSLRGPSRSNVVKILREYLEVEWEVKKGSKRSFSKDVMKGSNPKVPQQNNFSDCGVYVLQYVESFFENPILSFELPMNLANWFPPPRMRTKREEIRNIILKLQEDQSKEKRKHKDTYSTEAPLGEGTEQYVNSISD

[7] = biological target: Serine/threonine-protein kinase D2 (Homo sapiens, UniProt Q9BZL6); assay type: functional;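 also: measured against PRKD2 as one member of a kinome-wide kinase profiling panel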
Sequence of Serine/threonine-protein kinase D2 (Q9BZL6 whole entry): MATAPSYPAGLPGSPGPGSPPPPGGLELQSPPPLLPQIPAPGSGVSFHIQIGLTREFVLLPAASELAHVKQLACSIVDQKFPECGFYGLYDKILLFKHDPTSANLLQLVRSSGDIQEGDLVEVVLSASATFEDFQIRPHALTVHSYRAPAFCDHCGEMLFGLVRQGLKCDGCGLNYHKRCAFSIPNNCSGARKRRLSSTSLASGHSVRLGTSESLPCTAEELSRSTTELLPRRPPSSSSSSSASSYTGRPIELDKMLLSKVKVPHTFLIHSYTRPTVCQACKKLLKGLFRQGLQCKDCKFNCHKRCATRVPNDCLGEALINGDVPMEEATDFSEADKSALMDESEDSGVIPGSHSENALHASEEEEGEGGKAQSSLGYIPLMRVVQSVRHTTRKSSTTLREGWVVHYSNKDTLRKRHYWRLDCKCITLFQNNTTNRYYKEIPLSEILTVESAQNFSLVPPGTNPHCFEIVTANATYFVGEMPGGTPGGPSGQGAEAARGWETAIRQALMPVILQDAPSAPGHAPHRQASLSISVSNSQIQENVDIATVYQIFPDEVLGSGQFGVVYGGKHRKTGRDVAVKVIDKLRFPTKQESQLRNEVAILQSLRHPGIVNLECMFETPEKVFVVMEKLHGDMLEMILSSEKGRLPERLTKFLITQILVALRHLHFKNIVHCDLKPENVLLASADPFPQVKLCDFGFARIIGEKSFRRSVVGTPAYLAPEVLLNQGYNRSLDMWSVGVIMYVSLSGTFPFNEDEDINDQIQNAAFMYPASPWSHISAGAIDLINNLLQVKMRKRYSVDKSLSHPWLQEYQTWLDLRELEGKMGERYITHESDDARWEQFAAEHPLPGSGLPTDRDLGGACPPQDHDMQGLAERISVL

[8] = biological target: Tyrosine-protein kinase JAK3 (Homo sapiens, UniProt P52333); assay type: functional
Sequence of Tyrosine-protein kinase JAK3 (P52333 whole entry): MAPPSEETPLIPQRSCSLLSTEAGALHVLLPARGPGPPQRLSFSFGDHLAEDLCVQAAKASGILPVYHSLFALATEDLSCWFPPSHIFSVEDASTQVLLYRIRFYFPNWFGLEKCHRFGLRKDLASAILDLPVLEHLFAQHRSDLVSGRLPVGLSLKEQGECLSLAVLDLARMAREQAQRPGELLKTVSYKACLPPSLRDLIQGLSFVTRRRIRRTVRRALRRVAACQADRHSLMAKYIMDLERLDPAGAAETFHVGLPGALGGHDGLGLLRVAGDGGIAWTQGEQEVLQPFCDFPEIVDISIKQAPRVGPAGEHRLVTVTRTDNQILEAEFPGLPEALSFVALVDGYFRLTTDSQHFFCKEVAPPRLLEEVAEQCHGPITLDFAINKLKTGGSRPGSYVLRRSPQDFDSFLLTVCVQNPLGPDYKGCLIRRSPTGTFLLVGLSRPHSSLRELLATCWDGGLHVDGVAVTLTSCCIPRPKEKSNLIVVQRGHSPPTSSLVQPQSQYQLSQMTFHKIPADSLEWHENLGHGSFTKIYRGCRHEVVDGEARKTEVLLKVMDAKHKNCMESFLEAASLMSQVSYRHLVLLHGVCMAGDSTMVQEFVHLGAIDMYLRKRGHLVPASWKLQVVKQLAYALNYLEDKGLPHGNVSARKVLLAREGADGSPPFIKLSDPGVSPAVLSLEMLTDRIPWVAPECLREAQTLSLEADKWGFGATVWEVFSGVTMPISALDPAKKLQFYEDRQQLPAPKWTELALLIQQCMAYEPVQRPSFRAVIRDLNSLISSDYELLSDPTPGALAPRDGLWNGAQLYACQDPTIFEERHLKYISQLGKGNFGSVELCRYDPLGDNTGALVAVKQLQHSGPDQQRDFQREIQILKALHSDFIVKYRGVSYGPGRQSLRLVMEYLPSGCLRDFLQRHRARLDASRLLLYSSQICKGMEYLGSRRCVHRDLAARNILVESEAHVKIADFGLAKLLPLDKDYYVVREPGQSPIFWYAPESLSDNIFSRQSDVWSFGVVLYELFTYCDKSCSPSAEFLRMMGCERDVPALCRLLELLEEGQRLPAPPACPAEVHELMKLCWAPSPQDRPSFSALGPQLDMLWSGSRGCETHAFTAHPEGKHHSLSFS

[9] = biological target: Tyrosine-protein kinase receptor TYRO3 (Homo sapiens, UniProt Q06418); assay type: functional;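 also: TYRO3 value obtained as one member of a kinome-wide profiling panel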
Sequence of Tyrosine-protein kinase receptor TYRO3 (Q06418 whole entry): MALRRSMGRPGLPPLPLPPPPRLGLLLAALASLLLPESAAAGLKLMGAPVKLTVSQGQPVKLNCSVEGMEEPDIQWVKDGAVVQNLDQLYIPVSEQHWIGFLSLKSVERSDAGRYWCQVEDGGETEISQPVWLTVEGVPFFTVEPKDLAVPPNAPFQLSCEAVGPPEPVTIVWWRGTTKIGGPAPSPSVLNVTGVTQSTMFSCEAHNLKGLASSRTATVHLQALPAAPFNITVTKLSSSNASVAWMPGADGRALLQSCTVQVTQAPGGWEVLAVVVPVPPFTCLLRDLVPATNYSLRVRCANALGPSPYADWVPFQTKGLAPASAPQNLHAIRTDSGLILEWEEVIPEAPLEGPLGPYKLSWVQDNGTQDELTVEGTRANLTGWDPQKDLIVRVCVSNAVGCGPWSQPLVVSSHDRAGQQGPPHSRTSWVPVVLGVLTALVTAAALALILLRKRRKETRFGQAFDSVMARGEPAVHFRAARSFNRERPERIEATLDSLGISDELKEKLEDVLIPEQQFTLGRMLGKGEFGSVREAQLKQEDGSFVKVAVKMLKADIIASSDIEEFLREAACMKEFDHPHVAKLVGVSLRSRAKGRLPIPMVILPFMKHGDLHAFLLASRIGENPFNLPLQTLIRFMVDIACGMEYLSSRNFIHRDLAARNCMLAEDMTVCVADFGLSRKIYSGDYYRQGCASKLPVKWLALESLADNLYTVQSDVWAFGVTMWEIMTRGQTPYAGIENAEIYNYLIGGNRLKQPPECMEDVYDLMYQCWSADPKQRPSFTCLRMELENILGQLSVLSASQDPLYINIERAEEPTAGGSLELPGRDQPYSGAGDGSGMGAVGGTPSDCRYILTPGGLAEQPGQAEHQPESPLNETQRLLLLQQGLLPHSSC

| Ki [7] | Ki [8] | Ki [9] | Compound | IC50 [1] | IC50 [2] | IC50 [3] | IC50 [4] | AC50 [5] | IC50 [6] |
| --- | --- | --- | --- | --- | --- | --- | --- | --- | --- |
| – | – | – | COc1cc(Br)c(C(=O)c2nccc3cc(OC)c(OC)cc23)cc1OC | 2.29 µM (active) | 0.377 µM (active) | 3.53 µM (active) | > 80 µM (inactive) | 0.416 µM (active) | – |
| – | – | – | Cc1c(NC(=O)C(C)OC(=O)c2ccc([N+](=O)[O-])s2)c(=O)n(-c2ccccc2)n1C (stereo not drawn) | 1.99 µM (active) | 7.35 µM (active) | 49.5 µM (inactive) | – | > 20 µM (inactive) | 7.32 µM (active) |
| 1 µM (active) | > 3.98 µM (inactive) | > 2.51 µM (inactive) | CC(N)C1CCC(C(=O)Nc2ccnc3[nH]ccc23)CC1 (stereo not drawn) | – | – | – | – | – | – |
